Holding throughout (type): in vivo
One experiment relates to Musca domestica. As to the kind of experiment: Pesticidal test against Musca domestica (petri dish dry film). The settings on record: 24 h, concentration 100 ppm, female adults, examined after 1 day, 25° C., read-out: pesticidal rate. An outline of the steps: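 Dry film from 1 ml acetone solution of compound at a predetermined concentration, air-dried in a 9 cm petri dish; female adult flies released and dish capped. Held at 25° C; living and dead counted after 1 day. Five insects per group, two replicates.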

The next experiment concerns Rhipicephalus sanguineus. As to the kind of experiment: Insecticidal test for Rhipicephalus sanguineus (treated glass petri dish, Table A6). To be noted: adults of Rhipicephalus sanguineus, 18 hour exposure, examined after 48 hours, in single. The method, then: Insecticidal Test for Rhipicephalus sanguineus
0.5 ml of a solution of acetone, the active ingredient, prepared to the prescribed dose was added dropwise into a glass petri dish with a diameter of 10 cm, and the acetone was evaporated at room temperature. About 10 adults of Rhipicephalus sanguineus per dish were added, and the dish was covered by another glass petri dish that was treated with the active ingredient in the same manner described above. After 18 hour exposure to the test substance, the adults were transferred into a glass petri dish that was not treated with the active ingredient. After 48 hours of the exposure, the conditions of the adults were examined and classified into “alive” and “dead (including a moribund condition)” to determine the death rate (in single).
As the comparative compounds, said Compounds (B), (C), and (D), and the following Compound (F) disclosed in WO2009/080203, and fipronil were used.

In a further experiment the test system is Plutella xylostella. As to the kind of experiment: Pesticidal test against Plutella xylostella (cabbage leaf dip). The settings on record: foliar, 144 h, concentration 1 ppm, 2-stage larvae, examined after 6 days, 25° C., read-out: pesticidal rate. Put shortly:
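Cabbage leaf pieces dipped 30 s in test solution at a predetermined concentration, air-dried, then offered to 2nd-instar larvae, five per group in duplicate. Held at 25° C; living and dead larvae counted after 6 days.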

A further experiment has as its system Blattella germanica. As to the kind of experiment: Pesticidal test against Blattella germanica (petri dish dry film). The settings on record: 24 h, concentration 100 ppm, female adults, examined after 1 day, 25° C., read-out: pesticidal rate. Put shortly:
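Acetone solution of test compound at a predetermined concentration dried as a film in a 9 cm petri dish; female adult cockroaches released onto it and kept at 25° C. Living and dead counted after 1 day; five insects per group, two replicates.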

The next experiment deals with Adoxophyes honmai. As to the kind of experiment: Pesticidal test against Adoxophyes honmai (artificial feed dip). To be noted: 144 h, concentration 1 ppm, 2-stage larvae, examined after 6 days, 25° C., read-out: pesticidal rate. Put shortly:
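Thin artificial feed slices dipped 30 s in test solution at a predetermined concentration, air-dried, then offered to 2nd-stage larvae. Kept at 25° C; live and dead larvae counted after 6 days. Five larvae per group, two replicates.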

The test system of the next experiment is Ctenocephalides Felis. As to the kind of experiment: Insecticidal test for Ctenocephalides felis, Test Example 1 (dry film in glass tube, 0.5 ml, Table A4). To be noted: adults; for pest or weed control at 0.1 µg/mL: Ctenocephalides felis, concentration 0.1 μg/ml, after 24 hours of the exposure, in triplicate, read-out: death rate. The method, then:
Insecticidal Test for Ctenocephalides Felis
0.5 ml of a solution of acetone, the active ingredient, prepared to the prescribed concentration was added dropwise to a glass tube with a flat bottom (internal diameter: 2.6 cm, bottom area: 5.3 cm^2, height: 12 cm), and the solvent was evaporated at room temperature to form a dry film of the agent on the bottom surface. About 10 adults of Ctenocephalides Felis per glass tube were added, and the adults were contact-exposed to the test compound. After 24 hours of the exposure, the conditions of the adults were examined and classified into “alive” and “dead (including a moribund condition)” to determine the death rate (in triplicate).
As the comparative compounds, the following Compounds (A), (B), and (C) disclosed in WO2009/080203, and fipronil were used.

The test system of another experiment is Choristoneura magnanima. Description: Pesticidal test against Choristoneura magnanima (artificial feed dip). The settings on record: 144 h, concentration 1 ppm, 2-stage larvae, examined after 6 days, 25° C., read-out: pesticidal rate. An outline of the steps: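 Thin artificial feed slices dipped 30 s in compound solution at a set concentration, air-dried, then offered to 2nd-stage larvae held at 25° C. Living and dead larvae counted after 6 days; five larvae per group, two replicates.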

In a further experiment the test system is Coptotermes formosanus. As to the kind of experiment: Pesticidal test against Coptotermes formosanus (treated filter paper). The settings on record: 120 h, concentration 30 ppm, examined after 5 days of treatment, 28° C., read-out: pesticidal rate. The method, then: Pesticidal Test against Coptotermes formosanus
20 μl of an acetone solution in which a test compound had been prepared at a predetermined concentration was added dropwise to the filter paper having a diameter of […] included in a polypropylene cup, and air-dried, and then 20 μl of water was added thereto. Coptotermes formosanus was released and the cup was capped. They were left to stand in a thermostatic chamber at 28° C., and the numbers of the living pests and the dead pests were examined after 5 days of treatment. The test was carried out with ten larvae per group in two replicates.

For another experiment, the system named is Helicoverpa armigera. As to the kind of experiment: Pesticidal test against Helicoverpa armigera (cabbage leaf disk dip). To be noted: foliar, 72 h, concentration 1 ppm, 2-stage larvae, examined after 3 days, 25° C., read-out: pesticidal rate. An outline of the steps: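 Cabbage leaf disks were dipped for 30 s in test solution at a set concentration and air-dried. Second-instar larvae were placed one per hole and held at 25 °C, with live and dead counts taken after 3 days. Five larvae per group were tested in two replicates.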

Some results are limits rather than exact numbers.

On to `CN(C(=O)c1ccccc1)c1cccc(C(=O)Nc2c(Br)cc(C(F)(C(F)(F)F)C(F)(F)F)cc2C(F)(F)F)c1F` [7-1574, N-(2-bromo-4-(perfluoropropan-2-yl)-6-(trifluoromethyl)phenyl)-2-fluoro-3-(N-methylbenzamide)benzamide], for which the pest or weed control at 100 ppm in the experiment on Musca domestica and in the experiment with Blattella germanica was at least 70% in each case. In addition, the death rate is 10.0% in the experiment on Rhipicephalus sanguineus (0.0431 mg/m^2), 100.0% with Rhipicephalus sanguineus (0.0861 mg/m^2) and 100.0% with Rhipicephalus sanguineus (0.172 mg/m^2). Moreover, the pest or weed control at 1 ppm with Plutella xylostella, in the experiment on Adoxophyes honmai, in the experiment on Choristoneura magnanima and in the experiment with Helicoverpa armigera was at least 70% in each case. In the experiment on Ctenocephalides Felis, the pest or weed control at 0.1 µg/mL was 100%. The “speed of effect as compared with the fipronil” value in the experiment with Ctenocephalides Felis (compared with fipronil) is recorded as “immediate effect”. Also, the pest or weed control at 30 ppm in the experiment on Coptotermes formosanus is at least 70%.

Regarding `CN(C(=O)c1ccc(F)cc1)c1cccc(C(=O)Nc2c(I)cc(C(F)(C(F)(F)F)C(F)(F)F)cc2C(F)(F)F)c1F` [7-1733, 2-fluoro-3-(4-fluoro-N-methylbenzamide)-N-(2-iodo-4-(perfluoropropan-2-yl)-6-(trifluoromethyl)phenyl)benzamide], the pest or weed control at 100 ppm in the experiment with Musca domestica and in the experiment on Blattella germanica was at least 70% each time. For the same compound, the death rate in the experiment on Rhipicephalus sanguineus (0.0431 mg/m^2) turned out to be 0.0%; in the experiment with Rhipicephalus sanguineus (0.0861 mg/m^2), 80.0%; in the experiment on Rhipicephalus sanguineus (0.172 mg/m^2), 100.0%. Moreover, the pest or weed control at 1 ppm in the experiment with Plutella xylostella, with Adoxophyes honmai, in the experiment with Choristoneura magnanima and in the experiment with Helicoverpa armigera was at least 70% each time. The pest or weed control at 0.1 µg/mL in the experiment on Ctenocephalides Felis is 100%. In the experiment on Coptotermes formosanus, the pest or weed control at 30 ppm is at least 70%.

The values are drawn from patent publication US8686044B2, “Amide derivative, pest control agent containing the amide derivative, and use of the amide derivative” (Mitsui Chemicals Agro, Inc., priority 2008, dated 2014).
